In test [1] the test system is Staphylococcus aureus (S. aureus) 11540 strain. Kind of test: Standard microdilution assay, MIC against S. aureus 11540. Type of test: cell-based. Particulars: S. aureus 11540 strain, standard microdilution assay, cutoff 16 micrograms/mL, read-out: MIC S. aureus. The method, then: The in vitro activity of the compounds of the present invention can be determined. Antimicrobial testing is typically performed to determine the minimum inhibitory concentration (MIC). Minimum inhibitory concentrations (MICs) are determined by the microdilution method in a final volume of 100 μl according to protocols outlined by The Clinical and Laboratory Standards Institute (CLSI). Performance standards for reference strains are assessed within the same experimental design to maintain quality control. See, for example, Clinical Laboratory Standards Institute: Methods for dilution antimicrobial susceptibility tests for bacteria that grow aerobically M7-A8. Approved Standard-Eighth Edition. Wayne, Pa.: CLSI; December 2008; and Clinical Laboratory Standards Institute: Performance Standards for Antimicrobial Susceptibility Testing M100-S20; Approved Standard-Twentieth Edition. Wayne, Pa.: CLSI; June 2010.
The compounds of the present invention were tested for antimicrobial activity. The Compounds 1-582 were run against Eschericia coli (E. coli) strain ATCC25922 and Compounds 320-582 were run against Staphylococcus aureus (S. aureus) 11540 strain using a standard microdilution assay to determine minimum inhibitory concentrations (MICs). […] It will be recognized by one skilled in the art that the compounds can be assessed against other bacterial organisms and that the presentation of data for activity against Eschericia coli and Staphylococcus aureus are illustrative and in no way is intended to limit the scope of the present invention. The compounds of the present invention can be assayed against a range of other microorganisms depending upon the performance activity desired to be gathered. Furthermore, the “+” and “−” representation and the selection of a cutoff value of 16 micrograms/mL is also illustrative and in no way is intended to limit the scope of the present invention.
(In general: In broth dilution the organism is exposed to a series of concentrations in liquid medium.)

Test [2] deals with Eschericia coli (E. coli) strain ATCC25922. Put plainly: Standard microdilution assay, MIC against E. coli ATCC25922. Type of test: cell-based. Particulars: Escherichia coli; E. coli strain ATCC25922, standard microdilution assay; cutoff 16 micrograms/mL; read-out: MIC E. Coli. The method, boiled down: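 Scoring as + or − used a 16 micrograms/mL cutoff on minimum inhibitory concentrations. These came from CLSI-standard microdilution, quality-controlled with reference strains tested in the same run.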

Each structure is given as a SMILES string.

We go through 31 compounds from patent publication US10815238B2, “Antimicrobial compounds and methods of making and using the same” (BIOVERSYS AG, priority 2013, dated 2020).

In general, MIC refers to the least concentration at which growth counts as inhibited. With `C[C@H](N)CCCc1cc(OC(F)(F)F)c(F)c(-c2cc3cn(-c4ccc([C@@H](C)NCCCN)cc4)c(=O)nc3[nH]2)c1` [Compound 320], the MIC in test [1] and in test [2] was less than 16 µg/mL in each case.

In the case of `C[C@H](N)CCCc1cc(OC(F)(F)F)c(F)c(-c2cc3cn(-c4ccc([C@@H](C)NCCCNC(=N)N)cc4)c(=O)nc3[nH]2)c1` [Compound 321], the minimum inhibitory concentration (MIC) in test [1] and in test [2] was less than 16 µg/mL in each case.

As for `C[C@H](N)CCCc1cc(Cl)c(F)c(-c2cc3cn(-c4ccc(CNCC[C@H](CN5CCOCC5)NC(=N)N)cc4)c(=O)nc3[nH]2)c1` [Compound 322], the MIC in test [1] and in test [2] was less than 16 µg/mL each time.

`C[C@H](N)CCCc1cc(Cl)c(F)c(-c2cc3cn(-c4ccc([C@H](C)NCC[C@@H](Cn5cc(CN)nn5)NC(=N)N)cc4)c(=O)nc3[nH]2)c1` [Compound 323]: the MIC in test [1] and in test [2] was less than 16 µg/mL each time.

As for `C[C@H](NCCCN)c1ccc(-n2cc3cc(-c4cc(CCC[C@H](C)NC(=N)N)cc(Cl)c4F)[nH]c3nc2=O)cc1` [Compound 324], the MIC in test [1] and in test [2] was less than 16 µg/mL in each case.

For `C[C@H](N)CCCc1cc(OC(F)(F)F)c(F)c(-c2cc3cn(-c4ccc([C@H](C)NCC[C@H](CCN)NC(=N)N)cc4)c(=O)nc3[nH]2)c1` [Compound 325], the MIC in test [1] and in test [2] was less than 16 µg/mL in each case.

In the case of `C[C@H](NCCCNC(=N)N)c1ccc(-n2cc3cc(-c4cc(CCC[C@@H](N)CN=[N+]=[N-])cc(Cl)c4F)[nH]c3nc2=O)cc1` [Compound 326], the MIC in test [1] and in test [2] was less than 16 µg/mL each time.

`C[C@H](N)CCCc1cc(OC(F)(F)F)c(F)c(-c2cc3cn(-c4ccc([C@H](C)NCC[C@@H](Cn5cc(CN)nn5)NC(=N)N)cc4)c(=O)nc3[nH]2)c1` [Compound 327]: the MIC in test [1] and in test [2] was less than 16 µg/mL throughout.

For `C[C@H](N)CCCc1cc(OC(F)(F)F)c(F)c(-c2cc3cn(-c4ccc(CNCC[C@H](CN5CCOCC5)NC(=N)N)cc4)c(=O)nc3[nH]2)c1` [Compound 328], the MIC in test [1] and in test [2] was less than 16 µg/mL each time.

On to `COC[C@@H](CCN[C@@H](C)c1ccc(-n2cc3cc(-c4cc(CCC[C@H](C)N)cc(OC(F)(F)F)c4F)[nH]c3nc2=O)cc1)NC(=N)N` [Compound 329], for which the MIC in test [1] and in test [2] was less than 16 µg/mL each time.

For `COC[C@@H](CCN[C@@H](C)c1ccc(-n2cc3cc(-c4cc(CCC[C@H](C)N)cc(Cl)c4F)[nH]c3nc2=O)cc1)NC(=N)N` [Compound 330], the MIC in test [1] and in test [2] was less than 16 µg/mL throughout.

Turning to `C[C@H](NCCCNC(=N)N)c1ccc(-n2cc3cc(-c4cc(CCC[C@@H](N)COC(=O)Cc5ccccc5)cc(Cl)c4F)[nH]c3nc2=O)cc1` [Compound 331], the MIC in test [1] and in test [2] was less than 16 µg/mL throughout.

As for `C[C@H](N)CCCc1cc(Cl)c(F)c(-c2cc3cn(-c4ccc([C@H](C)NCC[C@H](CC#N)NC(=N)N)cc4)c(=O)nc3[nH]2)c1` [Compound 332], the MIC in test [1] and in test [2] was less than 16 µg/mL in each case.

On to `C[C@H](N)CCCc1cc(OC(F)(F)F)c(F)c(-c2cc3cn(-c4ccc([C@H](C)NCC[C@H](CC#N)NC(=N)N)cc4)c(=O)nc3[nH]2)c1` [Compound 333], for which the MIC in test [1] and in test [2] was less than 16 µg/mL in each case.

For `C[C@H](N)CCCc1cc(Cl)c(F)c(-c2cc3cn(-c4ccc([C@H](C)NCC[C@H](CN5CCOCC5)NC(=N)N)cc4)c(=O)nc3[nH]2)c1` [Compound 334], the MIC in test [1] and in test [2] was less than 16 µg/mL each time.

Take `C[C@H](N)CCCc1cc(OC(F)(F)F)c(F)c(-c2cc3cn(-c4ccc([C@H](C)NCC[C@@H](CCN)NC(=N)N)cc4)c(=O)nc3[nH]2)c1` [Compound 335]: the MIC in test [1] and in test [2] was less than 16 µg/mL in each case.

Take `C=C[C@@H](C[C@H](C)NCc1ccc(-n2cc3cc(-c4cc(CCC[C@H](C)N)cc(Cl)c4F)[nH]c3nc2=O)cc1)NC(=N)N` [Compound 336]: the MIC in test [1] and in test [2] was less than 16 µg/mL in each case.

Take `C=C[C@@H](C[C@H](C)NCc1ccc(-n2cc3cc(-c4cc(CCC[C@H](C)N)cc(OC(F)(F)F)c4F)[nH]c3nc2=O)cc1)NC(=N)N` [Compound 337]: the MIC in test [1] and in test [2] was less than 16 µg/mL throughout.

On to `C=C[C@H](C[C@H](C)NCc1ccc(-n2cc3cc(-c4cc(CCC[C@H](C)N)cc(Cl)c4F)[nH]c3nc2=O)cc1)NC(=N)N` [Compound 338], for which the MIC in test [1] and in test [2] was less than 16 µg/mL throughout.

With `C=C[C@H](C[C@H](C)NCc1ccc(-n2cc3cc(-c4cc(CCC[C@H](C)N)cc(OC(F)(F)F)c4F)[nH]c3nc2=O)cc1)NC(=N)N` [Compound 339], the MIC in test [1] and in test [2] was less than 16 µg/mL each time.

As for `COC[C@@H](CCNC(=N)N)NCc1ccc(-n2cc3cc(-c4cc(CCC[C@H](C)N)cc(Cl)c4F)[nH]c3nc2=O)cc1` [Compound 340], the MIC in test [1] and in test [2] was less than 16 µg/mL throughout.

On to `C[C@H](N)CCCc1cc(Cl)c(F)c(-c2cc3cn(-c4ccc([C@H](C)NCC[C@@H](CN5CCOCC5)NC(=N)N)cc4)c(=O)nc3[nH]2)c1` [Compound 341], for which the MIC in test [1] and in test [2] was less than 16 µg/mL each time.

Take `C[C@H](N)CC[C@H](N)c1cc(Cl)c(F)c(-c2cc3cn(-c4ccc([C@H](C)NCCCNC(=N)N)cc4)c(=O)nc3[nH]2)c1` [Compound 342]: the MIC in test [1] and in test [2] was less than 16 µg/mL each time.

Turning to `C[C@H](NCCCNC(=N)N)c1ccc(-n2cc3cc(-c4cc([C@@H]5CC[C@H](C)N5)cc(Cl)c4F)[nH]c3nc2=O)cc1` [Compound 343], the MIC in test [1] and in test [2] was less than 16 µg/mL each time.

Take `C[C@H](N)CCCc1cc(OC(F)(F)F)c(F)c(-c2cc3cn(-c4ccc([C@H](C)NCC[C@H](CC(N)=O)NC(=N)N)cc4)c(=O)nc3[nH]2)c1` [Compound 344]: the MIC in test [1] and in test [2] was less than 16 µg/mL in each case.

`COC[C@H](CCN[C@@H](C)c1ccc(-n2cc3cc(-c4cc(CCC[C@H](C)N)cc(Cl)c4F)[nH]c3nc2=O)cc1)NC(=N)N` [Compound 345]: the minimal inhibitory concentration (MIC) in test [1] and in test [2] was less than 16 µg/mL in each case.

Take `COC[C@H](CCN[C@@H](C)c1ccc(-n2cc3cc(-c4cc(CCC[C@H](C)N)cc(OC(F)(F)F)c4F)[nH]c3nc2=O)cc1)NC(=N)N` [Compound 346]: the MIC in test [1] and in test [2] was less than 16 µg/mL in each case.

Consider `COCC[C@H](CCN[C@@H](C)c1ccc(-n2cc3cc(-c4cc(CCC[C@H](C)N)cc(Cl)c4F)[nH]c3nc2=O)cc1)NC(=N)N` [Compound 347], for which the MIC in test [1] and in test [2] was less than 16 µg/mL throughout.

In the case of `C[C@H](N)CCCc1cc(Cl)c(F)c(-c2cc3cn(-c4ccc([C@H](C)NCC[C@H](CC(N)=O)NC(=N)N)cc4)c(=O)nc3[nH]2)c1` [Compound 348], the MIC in test [1] and in test [2] was less than 16 µg/mL in each case.

For `C[C@H](N)CCCc1cc(Cl)c(F)c(-c2cc3cn(-c4ccc([C@H]5CC[C@H](CCNC(=N)N)N5)cc4)c(=O)nc3[nH]2)c1` [Compound 349], the MIC in test [1] and in test [2] was less than 16 µg/mL each time.

For the compound `COCC[C@H](CCN[C@@H](C)c1ccc(-n2cc3cc(-c4cc(CCC[C@H](C)N)cc(OC(F)(F)F)c4F)[nH]c3nc2=O)cc1)NC(=N)N` [Compound 350], the MIC in test [1] and in test [2] was less than 16 µg/mL throughout.
